Data as given in US9254273B2, “Compositions and methods for treating Alzheimer's disease and related disorders and promoting a healthy nervous system” (Icahn School of Medicine at Mount Sinai, priority 2004, dated 2016).
“Also recorded” adds a separate entry of the source. Like-named read-outs stand apart in the source and are kept apart here.

Experiments:
[1] = insulin-resistant and hyperinsulinemic monkeys; cited from earlier work
[2] = system: Tg2576 mice; assay: Cognitive function in Tg2576 mice; format: in vivo, mouse
[3] = history of use, animal and human clinical scientific studies; cited from earlier work
[4] = system: NOTCH; assay: Cleavage of NOTCH in the neocortex of Tg2576 transgenic mice; format: in vivo, mouse; details: compared to insulin-resistant and control Tg2576 mice, data not shown
[5] = system: insulin receptor signal transduction; assay: Insulin receptor signal transduction in the brain of Tg2576 mice; format: in vivo, mouse
[6] = system: γ-secretase; assay: In vitro γ-secretase assay (in vitro model of amyloidosis): CTF-γ from membrane-bound APP, H4-APPswe cells; format: biochemical, human
Procedure: (§1) For assessment of γ-secretase activity, cell monolayers were rinsed twice with ice-cold PBS on ice, scraped from tissue culture dishes and centrifuged (1,500 rpm, 10 min, 4° C.). Cell pellets were then resuspended (0.5 ml/10 cm dish) in homogenization buffer (10 mM MOPS pH 7.0, 10 mM potassium chloride, 1× complete protease inhibitor (PI) (Roche Molecular Biochemicals, Germany) and homogenized by passing cell suspensions through a 23-gauge needle 10 times. Homogenates were then centrifuged (2,500 rpm, 15 min at 4° C.) to remove unbroken cells and nuclei. The supernatant (membrane and post-nuclear supernatant) was then centrifuged (14,000 rpm, 20 min, 4° C.) and rinsed in homogenization buffer. Membranes were then resuspended (0.5 ml/10 cm dish) in assay buffer (150 mM sodium citrate pH 6.4; 1×PI) and incubated at (2 hr) at 37° C. in 25 μl of incubation buffer per assay sample to allow for generation of the CTF-γ cleavage product; negative control samples were maintained on ice. CTF-γ cleavage products (as well as CTF-α and CTF-β) were resolved electrophoretically in 10-20% Tris-Tricine gels (Bio Rad Laboratories, CA), and identified using an anti APP polyclonal C8 antibody. Immunoreactivities were visualized autoradiographically using a chemiluminescence detection kit (SuperSignal; Pierce Biotechnology, Rockford, Ill.). […]

[7] = system: α-secretase; assay: Cell-based α-secretase activity assay (fluorometric kit) in pinitol-treated H4 cells; design: species or system human; details: cultured H4 cells, increasing concentrations of pinitol, 24 and 48 hours
Procedure: (§2) In this study, cultured human glioma H4-cells with constitutive APP751 expression were treated with increasing concentrations of pinitol, and then cellular ∀- and ∃-secretase activity as well as A∃ peptide contents in the conditioned media were assessed in response to pinitol treatment over time. Growth and maintenance of H4-APP751 cells were as described in Qin et al. (J. Biol. Chem. 2002; 278:50970-50977). Confluent cell cultures were treated with increasing concentration of pinitol. At 24 and 48 hours after pinitol treatment, cells were harvested for secretase activity assays and conditioned media were collected for measurement of A∃ peptide contents. The ∀-secretase (FIG. 7A) and ∃-secretase (FIG. 7B) activities in pinitol-treated cells were measured using commercially available kits (R&D Systems). Harvested cells were homogenized in supplied buffers and homogenate was added to a secretase-specific APP peptide conjugated to the reporter molecules EDANS and DABCYL. […] Cleavage of the peptide by the secretase physically separates the EDANS and DABCYL, allowing the release of a fluorescent signal. The level of ∀-secretase (FIG. 7A) or ∃-secretase (FIG. 7B) enzymatic activity is proportional to the fluorometric reaction in the homogenate. […] A∃ peptides were measured by ELISA as described above. […]

[8] = biological target: T1, β-secretase (Homo sapiens, UniProt P56817); assay: Cell-based β-secretase activity assay (fluorometric kit) in pinitol-treated H4 cells; details: cultured H4 cells, increasing concentrations of pinitol, 24 and 48 hours
T1 construct: endogenous in cells; host or cells: H4-APP751 human glioma cells (homogenate)
T1 sequence (P56817 46-501): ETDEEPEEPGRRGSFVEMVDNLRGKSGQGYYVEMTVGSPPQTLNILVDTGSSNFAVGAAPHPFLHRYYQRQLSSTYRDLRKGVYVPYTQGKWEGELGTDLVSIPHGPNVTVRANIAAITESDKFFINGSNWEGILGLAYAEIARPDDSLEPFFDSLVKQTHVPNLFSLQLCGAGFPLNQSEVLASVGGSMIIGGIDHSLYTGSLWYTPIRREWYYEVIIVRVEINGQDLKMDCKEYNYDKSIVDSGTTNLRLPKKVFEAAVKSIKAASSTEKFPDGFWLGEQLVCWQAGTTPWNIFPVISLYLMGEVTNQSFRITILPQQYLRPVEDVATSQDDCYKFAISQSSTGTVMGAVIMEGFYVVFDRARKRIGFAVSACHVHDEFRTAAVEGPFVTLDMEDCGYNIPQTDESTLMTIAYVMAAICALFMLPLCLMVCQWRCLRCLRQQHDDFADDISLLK
Procedure: as §2

[9] = system: NOTCH; assay: γ-secretase-mediated cleavage of NOTCH in H4-APPswe cells; format: cell-based, human; details: FIG. 8B
Excerpt: The selectivity of D-pinitol action was further addressed by examining its effect on cleavage of the signaling molecule NOTCH. The “gamma-secretase” complex, consisting of presenilins (PS), nicastrin (NCT), APH-1 and PEN-2, catalyzes the intramembranous proteolysis of truncated Notch derivatives to generate NICD, respectively.

[10] = system: Tg2576 mice; assay: Aβ peptide content (ELISA) in the brain of Tg2576 mice on high-fat diet plus pinitol; format: in vivo, mouse; details: 12-month old female Tg2576 mice, high-fat diet plus pinitol in drinking water (600 mg/liter), from 4 months of age
Excerpt: This study assessed A∃ peptide contents in the brain and in the periphery (serum) of 12-month old female Tg2576 mice in response to chronic treatment, initiating at 4 month of age, with a high-fat (HF) diet or HF diet plus pinitol (N=3-4 per group). Gender-age-matched Tg2576 mice maintained on standard rodent laboratory diet (LF diet) served as controls. High-fat diet and standard laboratory diet containing equal % of cholesterol per g/diet were purchased from Research Diet, Inc. (New Brunswick, N.J.) (Ho et al, FASEB J 2004; 18:902-204). Pinitol (Humanetics Corp.) was provided by incorporation into drinking water (600 mg pinitol/liter water), which is available ad libitum. […] For quantitative assessment of A∃ peptides (Xiang et al. Gene Expr. 2002, 10:271-278), frozen pulverized brain tissues were homogenized in 5.0 M guanidine buffer, diluted (1:10) in phosphate-buffered saline containing 0.05% (v/v) Tween-20 and 1 mM Pefabloc protease inhibitors (Roche Biochemicals, Indianapolis, Ind.) and centrifuged for 20 min at 4° C. Total Aβ1-40 or Aβ1-42 was measured by sandwich ELISA (BioSource, Camarillo, Calif.) according to the manufacturer's instructions. Serum specimens were assessed directly using the same ELISA according to the manufacturer's instructions.

[11] = system: γ-secretase; assay: Aβ peptide content in conditioned media by ELISA (γ-secretase readout) in pinitol-treated H4 cells; format: cell-based, human
Procedure: For quantitative assessment of A∃ peptides (Xiang et al. Gene Expr. 2002, 10:271-278), frozen pulverized brain tissues were homogenized in 5.0 M guanidine buffer, diluted (1:10) in phosphate-buffered saline containing 0.05% (v/v) Tween-20 and 1 mM Pefabloc protease inhibitors (Roche Biochemicals, Indianapolis, Ind.) and centrifuged for 20 min at 4° C. Total Aβ1-40 or Aβ1-42 was measured by sandwich ELISA (BioSource, Camarillo, Calif.) according to the manufacturer's instructions. Serum specimens were assessed directly using the same ELISA according to the manufacturer's instructions.
In this study, cultured human glioma H4-cells with constitutive APP751 expression were treated with increasing concentrations of pinitol, and then cellular ∀- and ∃-secretase activity as well as A∃ peptide contents in the conditioned media were assessed in response to pinitol treatment over time. Growth and maintenance of H4-APP751 cells were as described in Qin et al. (J. Biol. Chem. 2002; 278:50970-50977). Confluent cell cultures were treated with increasing concentration of pinitol. At 24 and 48 hours after pinitol treatment, cells were harvested for secretase activity assays and conditioned media were collected for measurement of A∃ peptide contents. The ∀-secretase (FIG. 7A) and ∃-secretase (FIG. 7B) activities in pinitol-treated cells were measured using commercially available kits (R&D Systems). Harvested cells were homogenized in supplied buffers and homogenate was added to a secretase-specific APP peptide conjugated to the reporter molecules EDANS and DABCYL. […] Cleavage of the peptide by the secretase physically separates the EDANS and DABCYL, allowing the release of a fluorescent signal. The level of ∀-secretase (FIG. 7A) or ∃-secretase (FIG. 7B) enzymatic activity is proportional to the fluorometric reaction in the homogenate. […] A∃ peptides were measured by ELISA as described above. In FIG. 7, each value represents Mean±SEM; n=4 cultures per assay; * P<0.05 vs. control (no pinitol treatment) group (2-tailed Student's t test).

[12] = system: γ-secretase; assay: In vitro γ-secretase assay in extracts obtained from CHO-APPswe cells; format: biochemical; details: data not shown
Procedure: as §1

[13] = cited from earlier work
[14] = system: GSK-3; assay: GSK-3 activity in the brain of Tg2576 mice; format: in vivo, mouse; details: Tg2576 mice treated with D-pinitol
[15] = LDH assay of cell toxicity; format: cell-based; details: all concentrations tested, 50-250 μM, not shown
[16] = 80 mg/kg/day in drinking water from six months of age, 12-month old Tg2576 mice
[17] = conditioned culture media, ELISA, increasing concentrations of pinitol

CO[C@H]1[C@H](O)[C@@H](O)[C@@H](O)[C@H](O)[C@@H]1O [D-pinitol]
rate of glucose disappearance [1]: increased | cognitive impairment ([2]; NIDDM-like insulin resistant Tg2576 mice): beneficially influences | cognitive functions ([2]; Tg2576 mice, 80 mg/kg body weight per day in drinking water, preliminary studies): promotes | toxicity and safety in man [3]: non-toxic and safe | cleavage of NOTCH in the neocortex [4]: no inhibitory effect | PI3K-p85α [5, 16]: increased | S473-AKT [5, 16]: increased | total IRβ [5, 16]: not | Y1162/1163-phosphorylated IRβ ([5]; 80 mg/kg/day in drinking water from six months of age, 12-month old Tg2576 mice, vs insulin resistant and control mice): increased | insulin receptor signal transduction in the brain ([5]; Tg2576 mice treated with D-pinitol): restoration | formation of the ~7 kDa CTF-γ APP fragment ([6]; H4-APPswe cells, membrane-bound APP): blocked; also recorded: selective reduction | α-secretase activity [7]: no effect; also recorded: does not influence | β-secretase activity [8]: no effect; also recorded: does not influence | cleavage of NOTCH [9]: no inhibitory effect | β-amyloidogenesis in the brain [10]: amelioration | β-amyloidogenesis in the brain ([10]; listed as pinitol): reduced | Aβ1-40 production [11, 17]: dose-dependent inhibition | Aβ1-42 production [11, 17]: dose-dependent inhibition | γ-secretase activity ([11]; cultured H4 cells, read out as Aβ1-40 and Aβ1-42 in conditioned media): robust inhibitory effect | Aβ1-40 peptide in the same tissue culture ([12]; CHO-APPswe cells): corresponding reduction | formation of the ~7 kDa CTF-γ APP ([12]; extracts from CHO-APPswe cells): blocked in a dose dependent fashion | blood glucose concentration ([13]; normal rats given glucose): lower | blood glucose concentration ([13]; streptozotocin-induced diabetic rats): lower | GSK-3 activity in the brain [14]: restoration | cell toxicity (LDH assay) [15]: no detectable cell toxicity

OC1C(O)C(O)C(O)C(O)C1O (stereo not drawn) [d-chiro-inositol, reference compound]
β-amyloid formation in the in vitro system ([6]; in vitro amyloidosis system): no inhibitory effect
